Here are results for one compound from US20240148701A1, “WOULD HEALING METHODS” (The University of Sydney, priority 2021, published 2024).

Holding throughout (type): in vivo, mouse
The subject of assay [1] is eNOS. Put plainly: eNOS immunoprecipitation, glutathionylation of eNOS in ischemic hind limb. The settings on record: ischemic limbs of type 1 diabetes mice. The procedure: Gastronemius protein (500 μg) extracted as above was used for co-immunoprecipitation with eNOS. Protein G dynabeads (1.5 mg/ml, 2.8 μm beads, Thermofisher Scientific, Australia) were covalently conjugated with mouse anti-eNOS antibody (BD Biosciences, 1 μg) using bis(sulfosuccinimidyl) suberate amine-amine cross-linking solution (5 mM; ThermoFisher Scientific, Australia). Beads were washed with PBS and incubated with protein lysate overnight at 4° C. IgG controls were prepared using anti-IgG antibodies conjugated to dynabeads using an identical process. Protein was eluted from beads using LDS buffer, denatured and run in non-reduced conditions on 8% Bis-Tris gels using SDS-PAGE and transferred onto polyvinylidene fluoride membrane as above. Expression of oxidized glutathione was detected using mouse anti-glutathione antibody (Virogen, 1:1000). eNOS was detected using rabbit anti-eNOS (Cell Signaling Technology, 1:1000, Australia). Odyssey detection system was used to visualize bands as above.

For a further assay, the system named is Nox 4. Put plainly: Immunoblot of hind limb Nox 4 expression. The protocol: (§1) Hind limb tissue including the gastrocnemius and adductor muscles were isolated and collected at 14 or 28 days. Tissues were separated and implanted in OCT or placed in cryovials and snap-frozen in liquid nitrogen or were fixed in 10% formalin for 24-hours and then moved to 70% ethanol for storage.
Gastrocnemius samples were stored at −80° C. and then mechanically homogenized in ice-cold lysis buffer containing 150 mmol/L NaCl, 200 mmol/L Tris-HCl (pH 8.0), 1% Triton X-100, 0.5% deoxycholic acid, 0.1% SDS, N-ethylmaleimide (25 mM) and protease inhibitors (cOmplete™ EDTA-free, Roche Diagnostics). 30 μg of protein lysate was denatured and run under reducing conditions on SDS-PAGE (Bolt™ pre-cast gels and reagents, Thermofisher Scientific, Australia) and transferred onto Immobilon polyvinylidene fluoride membrane (Merck Millipore, Australia). […] Membranes were detected using an Odyssey imaging platform (Licor, USA).

The next assay deals with superoxide. Put plainly: Superoxide generation by lucigenin enhanced chemiluminescence in hind limb tissue. The following applies: after 14 days of infusion. The protocol: as §1
Frozen adductor tissue was prepared for lucigenin-enhanced chemiluminescence assay by homogenising in lysis buffer (250 mM sucrose in phosphate-buffered saline (mM: 129 NaCl, 7 Na2HPO4, 3 NaH2PO4·2H2O, pH 7.4, with protease inhibitors (cOmplete™ EDTA-free, Roche Diagnostics). Sample was added to opaque 96-well plates in the presence of lucigenin (20 μmol/1 N,N′-Dimethyl-9,9′-biacridinium dinitrate) and NADPH (100 μM; β-Nicotinamide adenine dinucleotide 2′-phosphate reduced tetrasodium salt hydrate). The reaction was conducted at room temperature and tracked using a luminometer (Veritas, Turner Biosystems, USA) with an average measurement taken from 20 cycles, as described in Bubb et al., (2018, Microcirulation, e12501). Replicates of each sample were treated with manganese TMPyP (Merck Millipore, Australia, a cell-permeable superoxide dismutase mimetic, 30 μmol/L), during the assay and any signal was subtracted from the total signal as non-superoxide background signal. Superoxide production was normalized to protein concentration or cell count.

The test system of the next assay is C57BL6/J mice. Put plainly: Murine hind limb ischemia model, laser Doppler perfusion (non-diabetic mice). The protocol: Male C57BL6/J mice 8-10 weeks of age were obtained from Australian BioResources (Moss Vale, NSW) with 12 hour light/dark cycles and free access to water and mouse chow (Specialty Feeds, Australia). Mice were housed in groups of 2-5 in standard cages within a Physical Containment Level 2 laboratory. For in vivo angiogenesis 16 mice underwent the femoral vascular ligation model. Mice were anaesthetized with 1.5-2% isoflurane vaporized in oxygen and constant body temperature was maintained. All mice received pre-operative and 24-hour post-operative analgesia (carprofen, 5 mg/kg s.c). A small incision (˜15 mm) was made in the hind limb skin directly over the femoral vasculature. A portion of the femoral artery and vein, distal to the origin of the profunda femoris artery and proximal to the saphenous artery, were isolated and two ligations were performed using 6-0 silk sutures. The femoral artery and vein were then excised between the ligation sites 27. An osmotic mini-pump (model 1002 [for 14 day protocols] or model 1004 [for 28 day protocols], Alzet, USA) containing either CL 316,243 (1 mg/kg/day) or vehicle (normal saline) was then implanted via the femoral skin opening and tunneled around and positioned in the dorsal flank. The mice were randomized 1:1 to treatment protocols prior to undergoing surgery. The skin was closed with non-continuous suture (Prolene 6-0, Johnson and Johnson Medical, Australia). Hind limb blood flow was assessed prior to ligation (baseline) and immediately after undergoing hind limb ischemia, with subsequent imaging at day 3, 7, 10, 14, 21 and 28 post hind limb ischemia. Some experiments were stopped at 14 days for assessment of hind limb histology and biochemistry. Software was used to analyze the perfusion flux (Moor, UK) and investigators were blinded to the treatment groups during the period of analysis. The rate of reperfusion in the hind limb was calculated as a ratio of blood flow in the ischemic versus non-ischemic contralateral limb.

Another assay has as its system CD31. Put plainly: CD31 histological analysis of hind limbs post-ischemia. The following applies: both type 1 diabetes and non-diabetic mice. The protocol: Formalin fixed paraffin-embedded gastrocnemius was cut into 4 μm sections and then sections were deparaffinized. Heat retrieval was performed with Tris-EDTA buffer at pH 9. Slides were incubated overnight with a rabbit polyclonal CD31 antibody (dilution 1:200, Abcam Ltd, Australia) followed by horseradish peroxidase anti-rabbit Envision system (Dako Cytochemistry, Tokyo, Japan). Staining was developed with 3.3 diaminobenzidine tetrahydrochloride (Dako Cytochemistry, Tokyo, Japan) and counterstained with Mayer's hematoxylin stain. Rabbit IgG negative controls (Dako Cytochemistry, Tokyo, Japan) were used. A total of ten non-overlapping images for each gastrocnemius were taken with a light microscope (Leica, DM750 linked to an ICC50 E camera module). Images were taken at ×40 and analyzed with National Institute of Health Image J 1.51j8 software.

The subject of assay [2] is eNOS. Put plainly: NOS activity by radioimmunoassay in hind limb tissue. The following applies: ischemic and non-ischemic limbs, 14 days post-surgery. The protocol:
as §1
The activity of NOS was measured using radioimmunoassay according to manufacturer's instructions (Cayman Chemical, USA). Samples were prepared in triplicate and detected using a liquid scintillation counter (5 min detection, Tri-Carb 4910TR 100V, Perkin Elmer, USA). All samples were also assayed in the presence of L-NAME and this was subtracted from the baseline to give a readout of NOS activity.

On to `C[C@H](Cc1ccc2c(c1)OC(C(=O)[O-])(C(=O)[O-])O2)NC[C@H](O)c1cccc(Cl)c1.[Na+].[Na+]` [CL 316,243], for which the “glutathionylation of eNOS” value with eNOS [1] is reported as “largely abolished”. The “Nox 4 hind limb protein expression” value in the assay on Nox 4 (ischemic limb, non-diabetic mice, n=4, P>0.05) was found to be 0.88±0.28 fold change from vehicle. In the assay on Nox 4 (type 1 diabetic mice, ischemic and non-ischemic limb, back to control levels), the “diabetes-induced elevation in Nox4 expression” value was “markedly reduced”. Besides, the “superoxide bioavailability in the ischemic limb” value in the assay with superoxide was “significantly lower”. For the same compound, the “perfusion in the ischemic limbs” value in the assay with C57BL6/J mice (1 mg/kg/day subcutaneous infusion, 10-14 days following ischemic injury, vs vehicle) is “significantly increased perfusion”. Further, in the assay on C57BL6/J mice (1 mg/kg/day systemic infusion), the “perfusion in the non-ischemic limb” value is recorded as “increased perfusion”. The “ischemic non-ischemic ratio of perfusion” value with C57BL6/J mice (14 days of hind limb ischemia, vs vehicle) is listed as “no differences”. Also, the “CD31+ staining in ischemic hindlimbs (vascularization)” value with CD31 was “greater CD31+ staining”. In addition, the eNOS activity entry in the assay with eNOS [2] is listed as “enhanced eNOS activity”.
